Source: patent publication US8404442B2, “Methods for identification of bone anabolic agents” (New York University, priority 2009, dated 2013)

Tests used:
[1] = test system: Sox2-depleted osteoblasts; test: Rescue of colony forming ability of Sox2-depleted osteoblasts; format: cell-based, mouse; details: 10 μM SB431542
Protocol: For colony formation assay, 0.1×10^6 cells were plated per well in a cluster-6 well plate for 24 hours. The next day, the cells were infected with a retrovirus either encoding eGFP (MSCV-eGFP) or CRE (MSCV-CRE-eGFP) at an MOI of 10, in the presence of 8 μg/ml polybrene. Twenty-four (24) hours after infection, fresh medium was added to the plate and the cells were incubated for an additional 48 hours (72 hours total from the start of infection). The infected cells were then trypsinized and re-plated at a density of 1000 cells/well in a cluster-6 well plate. The plated were incubated for 7-10 days. Green colonies were visualized and counted under a fluorescence microscope. Colonies were fixed in 20% methanol for 15 minutes at room temperature, and counted after staining with 0.5% crystal violet in 20% methanol. We have developed a 96-well format, cell-based screen using two Sox2 foxed cell lines (F/F and F/-). […] The CellTiter-Blue® Cell Viability Assay is a fluorescence-based assay for measuring cell viability, and has an excellent Z′ factor^1. […] After one hour of incubation with the reagent, fluorescence was read using a Wallac Plate Reader (Perkinelmer, Waltham, Mass.). Z′ factor and z score for each plate was calculated for each cell line at different cell plating concentrations as described (28, 29). […]

iPSCs = details: refs (7,32); cited from earlier work

NC(=O)c1ccc(-c2nc(-c3ccc4c(c3)OCO4)c(-c3ccccn3)[nH]2)cc1 [SB431542]
rescue of loss of colony forming ability [1]: able to rescue to loss of colony forming ability | bypass of the requirement of Sox2 in reprogramming (iPSCs): bypass the requirement of Sox2 in the reprogramming of iPSCs
